Measurements taken from US8796466B2, “Hepatitis C virus inhibitors” (Bristol-Myers Squibb Company, priority 2009, dated 2014).

Tested on: HCV 1b genotype
Assay: HCV Replicon assay (HCV 1b genotype)
Assay type: cell-based, Hepatitis C virus
Conditions: Hepatitis C virus; HCV 1b genotype replicon; Effective 50% inhibitory concentration; read-out: 1b EC50
In short: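 HCV-neo replicon cells, wild-type plus lines carrying NS5A-region mutations, were exposed to compound; luciferase-reporter replicon variants were also used.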

SMILES | EC50
COC(=O)N[C@@H](C(=O)N1[C@@H]2C[C@@H]2C[C@H]1c1ncc(-c2ccc(C#Cc3ccc4c(ccc5nc([C@@H]6C[C@H]7C[C@H]7N6C(=O)[C@H](NC(=O)OC)c6ccccc6)[nH]c54)c3)cc2)[nH]1)c1ccccc1 [Example D-8, methyl ((1R)-2-((1R,3S,5R)-3-(7-((4-(2-((1R,3S,5R)-2-((2R)-2-((methoxycarbonyl)amino)-2-phenylacetyl)-2-azabicyclo[3.1.0]hex-3-yl)-1H-imidazol-4-yl)phenyl)ethynyl)-1H-naphtho[1,2-d]imidazol-2-yl)-2-azabicyclo[3.1.0]hex-2-yl)-2-oxo-1-phenylethyl)carbamate] | 0.005 nM

Same assay, conditions: Hepatitis C virus; HCV 1b genotype replicon; class symbol; read-out: Range (EC50 values against HCV 1b)

SMILES | EC50
COC(=O)N[C@H](C(=O)N1C[C@@H](C)C[C@H]1c1nc(-c2ccc(C#Cc3ccc(-c4[nH]c([C@@H]5C[C@H](C)CN5C(=O)[C@@H](NC(=O)OC)C5CCOCC5)nc4Cl)cc3)cc2)c[nH]1)C1CCOCC1 [Example M12.6, methyl ((1S)-2-((2S,4S)-2-(4-(4-((4-(4-chloro-2-((2S,4S)-1-((2S)-2-((methoxycarbonyl)amino)-2-(tetrahydro-2H-pyran-4-yl)acetyl)-4-methyl-2-pyrrolidinyl)-1H-imidazol-5-yl)phenyl)ethynyl)phenyl)-1H-imidazol-2-yl)-4-methyl-1-pyrrolidinyl)-2-oxo-1-(tetrahydro-2H-pyran-4-yl)ethyl)carbamate] | 0.002 to 0.099 nM
COC(=O)N[C@@H](C(=O)N1CCC[C@H]1c1ncc(-c2ccc(C#Cc3ccc4c(ccc5nc([C@@H]6CCCN6C(=O)[C@H](NC(=O)OC)c6ccccc6)[nH]c54)c3)cc2)[nH]1)c1ccccc1 [Example D-5, methyl ((1R)-2-((2S)-2-(7-((4-(2-((2S)-1-((2R)-2-((methoxycarbonyl)amino)-2-phenylacetyl)-2-pyrrolidinyl)-1H-imidazol-4-yl)phenyl)ethynyl)-1H-naphtho[1,2-d]imidazol-2-yl)-1-pyrrolidinyl)-2-oxo-1-phenylethyl)carbamate] | 0.002 to 0.099 nM
COC(=O)N[C@H](C(=O)N1[C@@H]2C[C@@H]2C[C@H]1c1ncc(-c2cccc(C#Cc3cccc(-c4cnc([C@@H]5C[C@H]6C[C@H]6N5C(=O)[C@@H](NC(=O)OC)C(C)C)[nH]4)c3)c2)[nH]1)C(C)C [Example J3, methyl ((1S)-1-(((1R,3S,5R)-3-(4-(3-((3-(2-((1R,3S,5R)-2-((2S)-2-((methoxycarbonyl)amino)-3-methylbutanoyl)-2-azabicyclo[3.1.0]hex-3-yl)-1H-imidazol-4-yl)phenyl)ethynyl)phenyl)-1H-imidazol-2-yl)-2-azabicyclo[3.1.0]hex-2-yl)carbonyl)-2-methylpropyl)carbamate] | 0.002 to 0.099 nM
COC(=O)N[C@@H](C(=O)N1CCC[C@H]1c1nc(-c2ccc(COCc3ccc(-c4c[nH]c([C@@H]5CCCN5C(=O)[C@H](NC(=O)OC)c5ccccc5)n4)cc3)cc2)c[nH]1)c1ccccc1 [OL-16, dimethyl (oxybis(methylene-4,1-phenylene-1H-imidazole-4,2-diyl(2S)-2,1-pyrrolidinediyl((1R)-2-oxo-1-phenyl-2,1-ethanediyl)))biscarbamate] | 0.002 to 0.099 nM
COC(=O)N[C@H](C(=O)N1[C@@H]2C[C@@H]2C[C@H]1c1nc2ccc3cc(C#Cc4ccc5c(ccc6nc([C@@H]7C[C@H]8C[C@H]8N7C(=O)[C@@H](NC(=O)OC)C(C)C)[nH]c65)c4)ccc3c2[nH]1)C(C)C [Example D-10, methyl ((1S)-1-(((1R,3S,5R)-3-(7-((2-((3S)-2-((2S)-2-((methoxycarbonyl)amino)-3-methylbutanoyl)-2-azabicyclo[3.1.0]hex-3-yl)-1H-naphtho[1,2-d]imidazol-7-yl)ethynyl)-1H-naphtho[1,2-d]imidazol-2-yl)-2-azabicyclo[3.1.0]hex-2-yl)carbonyl)-2-methylpropyl)carbamate] | 0.002 to 0.099 nM
COC(=O)N[C@H](C(=O)N1C[C@@H](O)C[C@H]1c1ncc(-c2ccc(C#Cc3ccc(-c4cnc([C@@H]5C[C@H](O)CN5C(=O)[C@@H](NC(=O)OC)C(C)C)[nH]4)cc3)cc2)[nH]1)C(C)C [Example N7, methyl ((1S)-1-(((2S,4S)-4-hydroxy-2-(4-(4-((4-(2-((2S,4S)-4-hydroxy-1-((2S)-2-((methoxycarbonyl)amino)-3-methylbutanoyl)-2-pyrrolidinyl)-1H-imidazol-4-yl)phenyl)ethynyl)phenyl)-1H-imidazol-2-yl)-1-pyrrolidinyl)carbonyl)-2-methylpropyl)carbamate] | 0.002 to 0.099 nM
COC(=O)N[C@H](C(=O)N1[C@@H]2C[C@@H]2C[C@H]1c1nc(-c2ccc(C#Cc3ccc(-c4[nH]c([C@@H]5C[C@H]6C[C@H]6N5C(=O)[C@@H](NC(=O)OC)C5CCOCC5)nc4Cl)cc3)cc2)c[nH]1)C1CCOCC1 [Example M9.1, methyl ((1S)-2-((1R,3S,5R)-3-(4-(4-((4-(4-chloro-2-((1R,3S,5R)-2-((2S)-2-((methoxycarbonyl)amino)-2-(tetrahydro-2H-pyran-4-yl)acetyl)-2-azabicyclo[3.1.0]hex-3-yl)-1H-imidazol-5-yl)phenyl)ethynyl)phenyl)-1H-imidazol-2-yl)-2-azabicyclo[3.1.0]hex-2-yl)-2-oxo-1-(tetrahydro-2H-pyran-4-yl)ethyl)carbamate] | 0.002 to 0.099 nM
COC(=O)N[C@H](C(=O)N1C[C@@H](C)C[C@H]1c1ncc(-c2ccc(C#Cc3ccc(-c4cnc([C@@H]5C[C@H](C)CN5C(=O)[C@@H](NC(=O)OC)C(C)C)[nH]4)cc3)cc2)[nH]1)C(C)C [Example M12.2, methyl ((1S)-1-(((2S,4S)-2-(4-(4-((4-(2-((2S,4S)-1-((2S)-2-((methoxycarbonyl)amino)-3-methylbutanoyl)-4-methyl-2-pyrrolidinyl)-1H-imidazol-4-yl)phenyl)ethynyl)phenyl)-1H-imidazol-2-yl)-4-methyl-1-pyrrolidinyl)carbonyl)-2-methylpropyl)carbamate] | 0.002 to 0.099 nM
COC(=O)N[C@H](C(=O)N1CCCC[C@H]1c1ncc(-c2ccc(C#Cc3ccc(-c4cnc([C@@H]5CCCCN5C(=O)[C@@H](NC(=O)OC)C(C)C)[nH]4)cc3)cc2)[nH]1)C(C)C [Example N6, methyl ((1S)-1-(((2S)-2-(4-(4-((4-(2-((2S)-1-((2S)-2-((methoxycarbonyl)amino)-3-methylbutanoyl)-2-piperidinyl)-1H-imidazol-4-yl)phenyl)ethynyl)phenyl)-1H-imidazol-2-yl)-1-piperidinyl)carbonyl)-2-methylpropyl)carbamate] | 10 to 350 nM
COC(=O)N[C@@H](C(=O)N1[C@@H]2C[C@@H]2C[C@H]1c1ncc(-c2ccc(C#Cc3ccc4c(ccc5nc([C@@H]6C[C@H]7C[C@H]7N6C(=O)[C@H](NC(=O)OC)c6ccccc6)[nH]c54)c3)cc2)[nH]1)c1ccccc1 [Example D-8, methyl ((1R)-2-((1R,3S,5R)-3-(7-((4-(2-((1R,3S,5R)-2-((2R)-2-((methoxycarbonyl)amino)-2-phenylacetyl)-2-azabicyclo[3.1.0]hex-3-yl)-1H-imidazol-4-yl)phenyl)ethynyl)-1H-naphtho[1,2-d]imidazol-2-yl)-2-azabicyclo[3.1.0]hex-2-yl)-2-oxo-1-phenylethyl)carbamate] | 0.002 to 0.099 nM
CN(C)[C@@H](C(=O)N1CCC[C@H]1c1ncc(-c2ccc(CCc3ccc(-c4cnc([C@@H]5CCCN5C(=O)[C@@H](c5ccccc5)N(C)C)[nH]4)cc3)cc2)[nH]1)c1ccccc1 [OL-9, (1R)-2-((2S)-2-(4-(4-(2-(4-(2-((2S)-1-((2R)-2-(dimethylamino)-2-phenylacetyl)-2-pyrrolidinyl)-1H-imidazol-5-yl)phenyl)ethyl)phenyl)-1H-imidazol-2-yl)-1-pyrrolidinyl)-N,N-dimethyl-2-oxo-1-phenylethanamine] | 0.002 to 0.099 nM
COC(=O)N[C@H](C(=O)N1C[C@@H](C)C[C@H]1c1ncc(-c2ccc([C@H]3C[C@@H]3c3ccc(-c4cnc([C@@H]5C[C@H](C)CN5C(=O)[C@@H](NC(=O)OC)C5CCOCC5)[nH]4)cc3)cc2)[nH]1)C1CCOCC1 [Example M9.8, dimethyl ((1S,2S)-1,2-cyclopropanediylbis(4,1-phenylene-1H-imidazole-4,2-diyl((2S,4S)-4-methyl-2,1-pyrrolidinediyl)((1S)-2-oxo-1-(tetrahydro-2H-pyran-4-yl)-2,1-ethanediyl)))biscarbamate] | 0.002 to 0.099 nM
COC(=O)N[C@H](C(=O)N1[C@@H]2C[C@@H]2C[C@H]1c1nc(-c2ccc([C@@H]3C[C@H]3c3ccc(-c4c[nH]c([C@@H]5C[C@H]6C[C@H]6N5C(=O)[C@@H](NC(=O)OC)C5CCOCC5)n4)cc3)cc2)c[nH]1)C1CCOCC1 [Example M9.6, dimethyl ((1R,2R)-1,2-cyclopropanediylbis(4,1-phenylene-1H-imidazole-4,2-diyl(1R,3S,5R)-2-azabicyclo[3.1.0]hexane-3,2-diyl((1S)-2-oxo-1-(tetrahydro-2H-pyran-4-yl)-2,1-ethanediyl)))biscarbamate] | 0.002 to 0.099 nM
COC(=O)N[C@H](C(=O)N1CCC[C@H]1c1nc(-c2cccc(C#Cc3cccc(-c4c[nH]c([C@@H]5CCCN5C(=O)[C@@H](NC(=O)OC)C(C)C)n4)c3)c2)c[nH]1)C(C)C [Example J1, methyl ((1S)-1-(((2S)-2-(4-(3-((3-(2-((2S)-1-((2S)-2-((methoxycarbonyl)amino)-3-methylbutanoyl)-2-pyrrolidinyl)-1H-imidazol-4-yl)phenyl)ethynyl)phenyl)-1H-imidazol-2-yl)-1-pyrrolidinyl)carbonyl)-2-methylpropyl)carbamate] | 0.002 to 0.099 nM
COC(=O)N[C@H](C(=O)N1CCC[C@H]1c1nc(-c2ccc(C#Cc3ccc(-c4ccc(-c5c[nH]c([C@@H]6CCCN6C(=O)[C@@H](NC(=O)OC)C(C)C)n5)cc4)cc3)cc2)c[nH]1)C(C)C [Example J5, methyl ((1S)-1-(((2S)-2-(4-(4′-((4-(2-((2S)-1-((2S)-2-((methoxycarbonyl)amino)-3-methylbutanoyl)-2-pyrrolidinyl)-1H-imidazol-4-yl)phenyl)ethynyl)-4-biphenylyl)-1H-imidazol-2-yl)-1-pyrrolidinyl)carbonyl)-2-methylpropyl)carbamate] | 0.002 to 0.099 nM
COC(=O)N[C@@H](C(=O)N1CCC[C@H]1c1nc(-c2ccc(-c3ccc(-c4ccc(-c5c[nH]c([C@@H]6CCCN6C(=O)[C@H](NC(=O)OC)c6ccccc6)n5)cc4)cc3)cc2)c[nH]1)c1ccccc1 [Example D-1, dimethyl (1,1′:4′,1″-terphenyl-4,4″-diylbis(1H-imidazole-4,2-diyl(2S)-2,1-pyrrolidinediyl((1R)-2-oxo-1-phenyl-2,1-ethanediyl)))biscarbamate] | 0.002 to 0.099 nM
